Test: xn = mol fraction of the nth substance listed
Settings: 101 kPa, Liquid; for viscosity: Falling or rolling sphere viscometry; for mass density: Vibrating tube method

CCCCC[N+]1(C)CCCC1.[Br-] [1-methyl-1-pentylpyrrolidinium bromide] + O
Settings | mass density [kg/m3] | viscosity [mPa·s]
298.15 K, x1 = 0.0313 | 1054.87 | 1.987
298.15 K, x1 = 0.0592 | 1089.64 | 3.402
298.15 K, x1 = 0.0944 | 1119.19 | 6.013
298.15 K, x1 = 0.1301 | 1139.59 | 10.08
298.15 K, x1 = 0.1566 | 1150.73 | 14.2
298.15 K, x1 = 0.1964 | 1163.63 | 22.59
298.15 K, x1 = 0.2468 | 1175.13 | 38.27
298.15 K, x1 = 0.3028 | 1184.58 | 66.43
298.15 K, x1 = 0.3503 | 1190.28 | 102.55
298.15 K, x1 = 0.4097 | 1195.59 | 175.43
298.15 K, x1 = 0.445 | 1198.37 | 241.18
298.15 K, x1 = 1 | 1188.96 | –
303.15 K, x1 = 0.0313 | 1052.43 | 1.728
303.15 K, x1 = 0.0592 | 1086.59 | 2.903
303.15 K, x1 = 0.0944 | 1115.78 | 5.036
303.15 K, x1 = 0.1301 | 1136.1 | 8.404
303.15 K, x1 = 0.1566 | 1147.25 | 11.61
303.15 K, x1 = 0.1964 | 1160.15 | 18.05
303.15 K, x1 = 0.2468 | 1171.69 | 29.76
303.15 K, x1 = 0.3028 | 1181.21 | 50.36
303.15 K, x1 = 0.3503 | 1186.96 | 76.83
303.15 K, x1 = 0.4097 | 1192.35 | 128.64
303.15 K, x1 = 0.445 | 1195.15 | 173.72
303.15 K, x1 = 1 | 1185.14 | –
308.15 K, x1 = 0.0313 | 1049.86 | 1.469
308.15 K, x1 = 0.0592 | 1083.44 | 2.433
308.15 K, x1 = 0.0944 | 1112.34 | 4.142
308.15 K, x1 = 0.1301 | 1132.57 | 6.871
308.15 K, x1 = 0.1566 | 1143.72 | 9.343
308.15 K, x1 = 0.1964 | 1156.64 | 14.22
308.15 K, x1 = 0.2468 | 1168.24 | 22.83
308.15 K, x1 = 0.3028 | 1177.83 | 37.83
308.15 K, x1 = 0.3503 | 1183.64 | 56.94
308.15 K, x1 = 0.4097 | 1189.09 | 93.53
308.15 K, x1 = 0.445 | 1191.92 | 124.68
308.15 K, x1 = 1 | 1181.35 | –
313.15 K, x1 = 0.0313 | 1047.17 | 1.288
313.15 K, x1 = 0.0592 | 1080.23 | 2.104
313.15 K, x1 = 0.0944 | 1108.85 | 3.523
313.15 K, x1 = 0.1301 | 1129.01 | 5.794
313.15 K, x1 = 0.1566 | 1140.17 | 7.793
313.15 K, x1 = 0.1964 | 1153.12 | 11.62
313.15 K, x1 = 0.2468 | 1164.79 | 18.25
313.15 K, x1 = 0.3028 | 1174.44 | 29.54
313.15 K, x1 = 0.3503 | 1180.31 | 43.93
313.15 K, x1 = 0.4097 | 1185.82 | 70.78
313.15 K, x1 = 0.445 | 1188.67 | 94.43
313.15 K, x1 = 1 | 1177.58 | –
318.15 K, x1 = 0.0313 | 1044.36 | 1.152
318.15 K, x1 = 0.0592 | 1076.94 | 1.849
318.15 K, x1 = 0.0944 | 1105.32 | 3.055
318.15 K, x1 = 0.1301 | 1125.43 | 4.98
318.15 K, x1 = 0.1566 | 1136.58 | 6.632
318.15 K, x1 = 0.1964 | 1149.57 | 9.734
318.15 K, x1 = 0.2468 | 1161.33 | 14.99
318.15 K, x1 = 0.3028 | 1171.04 | 23.75
318.15 K, x1 = 0.3503 | 1176.97 | 35.02
318.15 K, x1 = 0.4097 | 1182.56 | 55.19
318.15 K, x1 = 0.445 | 1185.43 | 73.04
318.15 K, x1 = 1 | 1173.84 | –
323.15 K, x1 = 0.0313 | 1041.42 | 1.018
323.15 K, x1 = 0.0592 | 1073.59 | 1.61
323.15 K, x1 = 0.0944 | 1101.75 | 2.62
323.15 K, x1 = 0.1301 | 1121.81 | 4.239
323.15 K, x1 = 0.1566 | 1132.97 | 5.594
323.15 K, x1 = 0.1964 | 1146.01 | 8.098
323.15 K, x1 = 0.2468 | 1157.86 | 12.24
323.15 K, x1 = 0.3028 | 1167.63 | 19.02
323.15 K, x1 = 0.3503 | 1173.62 | 27.61
323.15 K, x1 = 0.4097 | 1179.3 | 43.02
323.15 K, x1 = 0.445 | 1182.19 | 56.06
323.15 K, x1 = 1 | 1170.12 | –
328.15 K, x1 = 0.0313 | 1038.21 | 0.901
328.15 K, x1 = 0.0592 | 1070.18 | 1.406
328.15 K, x1 = 0.0944 | 1098.14 | 2.253
328.15 K, x1 = 0.1301 | 1118.16 | 3.594
328.15 K, x1 = 0.1566 | 1129.34 | 4.737
328.15 K, x1 = 0.1964 | 1142.42 | 6.779
328.15 K, x1 = 0.2468 | 1154.37 | 10.1
328.15 K, x1 = 0.3028 | 1164.2 | 15.38
328.15 K, x1 = 0.3503 | 1170.27 | 22.07
328.15 K, x1 = 0.4097 | 1176.04 | 33.82
328.15 K, x1 = 0.445 | 1178.95 | 43.84
328.15 K, x1 = 1 | 1166.42 | –
333.15 K, x1 = 0.0313 | 1034.52 | 0.806
333.15 K, x1 = 0.0592 | 1066.7 | 1.238
333.15 K, x1 = 0.0944 | 1094.49 | 1.961
333.15 K, x1 = 0.1301 | 1114.49 | 3.084
333.15 K, x1 = 0.1566 | 1125.68 | 4.048
333.15 K, x1 = 0.1964 | 1138.81 | 5.734
333.15 K, x1 = 0.2468 | 1150.85 | 8.449
333.15 K, x1 = 0.3028 | 1160.77 | 12.68
333.15 K, x1 = 0.3503 | 1166.91 | 18.16
333.15 K, x1 = 0.4097 | 1172.78 | 27.16
333.15 K, x1 = 0.445 | 1175.7 | 35.05
333.15 K, x1 = 1 | 1162.75 | –
338.15 K, x1 = 0.0313 | 1031.9 | 0.735
338.15 K, x1 = 0.0592 | 1063.16 | 1.117
338.15 K, x1 = 0.0944 | 1090.8 | 1.75
338.15 K, x1 = 0.1301 | 1110.78 | 2.707
338.15 K, x1 = 0.1566 | 1121.99 | 3.551
338.15 K, x1 = 0.1964 | 1135.18 | 4.983
338.15 K, x1 = 0.2468 | 1147.32 | 7.259
338.15 K, x1 = 0.3028 | 1157.32 | 10.76
338.15 K, x1 = 0.3503 | 1163.54 | 15.24
338.15 K, x1 = 0.4097 | 1169.46 | 22.53
338.15 K, x1 = 0.445 | 1172.45 | 28.48
338.15 K, x1 = 1 | 1159.1 | –
343.15 K, x1 = 0.0313 | 1026.38 | 0.661
343.15 K, x1 = 0.0592 | 1059.56 | 0.991
343.15 K, x1 = 0.0944 | 1087.07 | 1.532
343.15 K, x1 = 0.1301 | 1107.04 | 2.328
343.15 K, x1 = 0.1566 | 1118.28 | 3.039
343.15 K, x1 = 0.1964 | 1131.53 | 4.253
343.15 K, x1 = 0.2468 | 1143.76 | 6.138
343.15 K, x1 = 0.3028 | 1153.87 | 9.006
343.15 K, x1 = 0.3503 | 1160.16 | 12.52
343.15 K, x1 = 0.4097 | 1166.21 | 18.43
343.15 K, x1 = 0.445 | 1169.19 | 22.9
343.15 K, x1 = 1 | 1155.48 | –

— the NIST ThermoML archive (doi:10.1016/j.tca.2014.05.028)
